The NIST ThermoML archive (doi:10.1016/j.fluid.2014.01.038)
± gives the expanded uncertainty stated by the source.

Test: cn = amount concentration of the nth substance listed, in mol/dm3
Conditions: 101 kPa, Liquid, Alternating current cell with electrodes

SMILES: CCCCCCCCCCCCn1cc[n+](C)c1.[Br-] [1-dodecyl-3-methylimidazolium bromide] + O
- electrical conductivity (283.15 K, c1 = 0.0006629): 0.00432 ± 0.0026 S/m
- electrical conductivity (283.15 K, c1 = 0.001064): 0.00695 ± 0.0026 S/m
- electrical conductivity (283.15 K, c1 = 0.001497): 0.0098 ± 0.0026 S/m
- electrical conductivity (283.15 K, c1 = 0.00184): 0.012 ± 0.0025 S/m
- electrical conductivity (283.15 K, c1 = 0.002146): 0.014 ± 0.002 S/m
- electrical conductivity (283.15 K, c1 = 0.00249): 0.0158 ± 0.0018 S/m
- electrical conductivity (283.15 K, c1 = 0.002909): 0.0168 ± 0.00079 S/m
- electrical conductivity (283.15 K, c1 = 0.003361): 0.0175 ± 0.00063 S/m
- electrical conductivity (283.15 K, c1 = 0.003884): 0.0183 ± 0.0006 S/m
- electrical conductivity (283.15 K, c1 = 0.00448): 0.0192 ± 0.00058 S/m
- electrical conductivity (283.15 K, c1 = 0.004998): 0.0199 ± 0.00049 S/m
- electrical conductivity (283.15 K, c1 = 0.005625): 0.0206 ± 0.00045 S/m
- electrical conductivity (288.15 K, c1 = 0.0006629): 0.00491 ± 0.003 S/m
- electrical conductivity (288.15 K, c1 = 0.001064): 0.00789 ± 0.003 S/m
- electrical conductivity (288.15 K, c1 = 0.001497): 0.0111 ± 0.0029 S/m
- electrical conductivity (288.15 K, c1 = 0.00184): 0.0136 ± 0.0028 S/m
- electrical conductivity (288.15 K, c1 = 0.002146): 0.0158 ± 0.0022 S/m
- electrical conductivity (288.15 K, c1 = 0.00249): 0.0178 ± 0.0021 S/m
- electrical conductivity (288.15 K, c1 = 0.002909): 0.019 ± 0.00091 S/m
- electrical conductivity (288.15 K, c1 = 0.003361): 0.0198 ± 0.00059 S/m
- electrical conductivity (288.15 K, c1 = 0.003884): 0.0204 ± 0.0006 S/m
- electrical conductivity (288.15 K, c1 = 0.00448): 0.0215 ± 0.00074 S/m
- electrical conductivity (288.15 K, c1 = 0.004998): 0.0224 ± 0.0007 S/m
- electrical conductivity (288.15 K, c1 = 0.005625): 0.0236 ± 0.0008 S/m
- electrical conductivity (293.15 K, c1 = 0.0006629): 0.0055 ± 0.0034 S/m
- electrical conductivity (293.15 K, c1 = 0.001064): 0.00894 ± 0.0033 S/m
- electrical conductivity (293.15 K, c1 = 0.001497): 0.0125 ± 0.0033 S/m
- electrical conductivity (293.15 K, c1 = 0.00184): 0.0153 ± 0.0031 S/m
- electrical conductivity (293.15 K, c1 = 0.002146): 0.0178 ± 0.0024 S/m
- electrical conductivity (293.15 K, c1 = 0.00249): 0.0201 ± 0.0023 S/m
- electrical conductivity (293.15 K, c1 = 0.002909): 0.0212 ± 0.00097 S/m
- electrical conductivity (293.15 K, c1 = 0.003361): 0.0222 ± 0.00087 S/m
- electrical conductivity (293.15 K, c1 = 0.003884): 0.0233 ± 0.0008 S/m
- electrical conductivity (293.15 K, c1 = 0.00448): 0.0244 ± 0.00081 S/m
- electrical conductivity (293.15 K, c1 = 0.004998): 0.0256 ± 0.00085 S/m
- electrical conductivity (293.15 K, c1 = 0.005625): 0.0269 ± 0.00091 S/m
- electrical conductivity (298.15 K, c1 = 0.0006629): 0.00613 ± 0.0038 S/m
- electrical conductivity (298.15 K, c1 = 0.001064): 0.00994 ± 0.0037 S/m
- electrical conductivity (298.15 K, c1 = 0.001497): 0.0139 ± 0.0036 S/m
- electrical conductivity (298.15 K, c1 = 0.00184): 0.017 ± 0.0035 S/m
- electrical conductivity (298.15 K, c1 = 0.002146): 0.0198 ± 0.0028 S/m
- electrical conductivity (298.15 K, c1 = 0.00249): 0.0222 ± 0.0027 S/m
- electrical conductivity (298.15 K, c1 = 0.002909): 0.0239 ± 0.0013 S/m
- electrical conductivity (298.15 K, c1 = 0.003361): 0.0251 ± 0.00099 S/m
- electrical conductivity (298.15 K, c1 = 0.003884): 0.0264 ± 0.00098 S/m
- electrical conductivity (298.15 K, c1 = 0.00448): 0.0279 ± 0.00099 S/m
- electrical conductivity (298.15 K, c1 = 0.004998): 0.0291 ± 0.00092 S/m
- electrical conductivity (298.15 K, c1 = 0.005625): 0.0305 ± 0.001 S/m
- electrical conductivity (303.15 K, c1 = 0.0006629): 0.00676 ± 0.0042 S/m
- electrical conductivity (303.15 K, c1 = 0.001064): 0.011 ± 0.0041 S/m
- electrical conductivity (303.15 K, c1 = 0.001497): 0.0154 ± 0.0039 S/m
- electrical conductivity (303.15 K, c1 = 0.00184): 0.0188 ± 0.0039 S/m
- electrical conductivity (303.15 K, c1 = 0.002146): 0.0216 ± 0.0033 S/m
- electrical conductivity (303.15 K, c1 = 0.00249): 0.0247 ± 0.0032 S/m
- electrical conductivity (303.15 K, c1 = 0.002909): 0.027 ± 0.0017 S/m
- electrical conductivity (303.15 K, c1 = 0.003361): 0.0284 ± 0.0012 S/m
- electrical conductivity (303.15 K, c1 = 0.003884): 0.0299 ± 0.0011 S/m
- electrical conductivity (303.15 K, c1 = 0.00448): 0.0315 ± 0.0011 S/m
- electrical conductivity (303.15 K, c1 = 0.004998): 0.033 ± 0.0011 S/m
- electrical conductivity (303.15 K, c1 = 0.005625): 0.0347 ± 0.0012 S/m
- electrical conductivity (308.15 K, c1 = 0.0006629): 0.00742 ± 0.0046 S/m
- electrical conductivity (308.15 K, c1 = 0.001064): 0.0121 ± 0.0045 S/m
- electrical conductivity (308.15 K, c1 = 0.001497): 0.0169 ± 0.0043 S/m
- electrical conductivity (308.15 K, c1 = 0.00184): 0.0201 ± 0.0043 S/m
- electrical conductivity (308.15 K, c1 = 0.002146): 0.0237 ± 0.0038 S/m
- electrical conductivity (308.15 K, c1 = 0.00249): 0.0273 ± 0.0039 S/m
- electrical conductivity (308.15 K, c1 = 0.002909): 0.0304 ± 0.0022 S/m
- electrical conductivity (308.15 K, c1 = 0.003361): 0.0321 ± 0.0014 S/m
- electrical conductivity (308.15 K, c1 = 0.003884): 0.0338 ± 0.0013 S/m
- electrical conductivity (308.15 K, c1 = 0.00448): 0.0358 ± 0.0013 S/m
- electrical conductivity (308.15 K, c1 = 0.004998): 0.0374 ± 0.0013 S/m
- electrical conductivity (308.15 K, c1 = 0.005625): 0.0394 ± 0.0013 S/m
